Source: US20250144094A1 (Erasca, Inc., priority 2021, published 2025)
pIC50: −log10 of the molar value.

Target: Recombinant human ULK1 (1-649) (Homo sapiens (Human), UniProt O75385)
Experiment: ULK1 ADP Glo kinase activity assay (MBP substrate)
Conditions: 25° C., 40 minutes, read-out: ULK1 biochemical IC50
How it was run: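 GST-tagged ULK1 (1-649) from Sf9 cells phosphorylated MBP, with ATP, for 40 min at 25 °C across a 12-point series from 10 uM. ADP formed was quantified by ADP-Glo luminescence against DMSO controls. IC50 came from a four-parameter variable-slope fit of log concentration.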

Chain of Recombinant human ULK1 (1-649) (O75385 1-649): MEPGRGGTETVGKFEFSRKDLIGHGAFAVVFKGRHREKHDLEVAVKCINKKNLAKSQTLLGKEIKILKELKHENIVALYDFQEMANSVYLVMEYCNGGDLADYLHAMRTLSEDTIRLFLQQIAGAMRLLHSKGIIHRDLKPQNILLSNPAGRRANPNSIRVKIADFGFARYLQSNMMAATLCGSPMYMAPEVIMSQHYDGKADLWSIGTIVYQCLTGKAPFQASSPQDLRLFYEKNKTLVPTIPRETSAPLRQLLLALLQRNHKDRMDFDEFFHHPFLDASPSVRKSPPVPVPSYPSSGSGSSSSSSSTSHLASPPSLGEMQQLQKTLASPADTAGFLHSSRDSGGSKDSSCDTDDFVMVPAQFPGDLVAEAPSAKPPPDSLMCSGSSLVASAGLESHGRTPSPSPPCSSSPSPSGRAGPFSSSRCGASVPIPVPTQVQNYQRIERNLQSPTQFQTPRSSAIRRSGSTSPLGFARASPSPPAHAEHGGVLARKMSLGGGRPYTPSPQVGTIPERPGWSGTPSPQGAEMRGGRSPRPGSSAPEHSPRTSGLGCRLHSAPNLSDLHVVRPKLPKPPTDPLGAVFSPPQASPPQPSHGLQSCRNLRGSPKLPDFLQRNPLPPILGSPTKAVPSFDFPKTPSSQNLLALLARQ

Compound | pIC50
Cc1c(S(C)(=O)=O)csc1-c1nc(Nc2cc3c(cc2Cl)CNCC3)ncc1C(F)(F)F [Example 79, 7-chloro-N-(4-(3-methyl-4-(methylsulfonyl)thiophen-2-yl)-5-(trifluoromethyl)pyrimidin-2-yl)-1,2,3,4-tetrahydroisoquinolin-6-amine] | 6.30 to 7.00
CN1CCC(n2cc(Nc3ncc(C(F)(F)F)c(-c4cc5c(s4)CCNC5=O)n3)c(C3CC3)n2)CC1 [Example 48, 2-(2-((3-cyclopropyl-1-(1-methylpiperidin-4-yl)-1H-pyrazol-4-yl)amino)-5-(trifluoromethyl)pyrimidin-4-yl)-6,7-dihydrothieno[3,2-c]pyridin-4(5H)-one] | ≥ 8.00
CS(=O)(=O)c1csc(-c2nc(Nc3cc4c(cc3Cl)CNCC4)ncc2C2CC2)c1 [Example 89, 7-chloro-N-(5-cyclopropyl-4-(4-(methylsulfonyl)thiophen-2-yl)pyrimidin-2-yl)-1,2,3,4-tetrahydroisoquinolin-6-amine] | 7.30 to 8.00
Cc1nn(C2CNC2)cc1Nc1ncc(C(F)(F)F)c(-c2cc(S(C)(=O)=O)cs2)n1 [Example 123, N-(1-(azetidin-3-yl)-3-methyl-1H-pyrazol-4-yl)-4-(4-(methylsulfonyl)thiophen-2-yl)-5-(trifluoromethyl)pyrimidin-2-amine] | 7.30 to 8.00
N#Cc1csc(-c2nc(Nc3cc4c(cc3Cl)CNCC4)ncc2C(F)(F)F)c1 [Example 25, 5-(2-((7-Chloro-1,2,3,4-tetrahydroisoquinolin-6-yl)amino)-5-(trifluoromethyl)pyrimidin-4-yl)thiophene-3-carbonitrile] | 7.30 to 8.00
CN1CCC(n2cc(Nc3ncc(C(F)(F)F)c(-c4cc(S(C)(=O)=O)cs4)n3)c(C3CC3)n2)CC1 [Example 129, N-(3-cyclopropyl-1-(1-methylpiperidin-4-yl)-1H-pyrazol-4-yl)-4-(4-(methylsulfonyl)thiophen-2-yl)-5-(trifluoromethyl)pyrimidin-2-amine] | ≥ 8.00
CN1Cc2cc(Nc3ncc(C(F)(F)F)c(-c4cc(C(N)=O)cs4)n3)c(C3CC3)cc2C1 [Example 19, 5-(2-((6-Cyclopropyl-2-methylisoindolin-5-yl)amino)-5-(trifluoromethyl)pyrimidin-4-yl)thiophene-3-carboxamide] | ≥ 8.00
CS(=O)(=O)c1cc(-c2nc(Nc3cc4c(cc3Cl)CNCC4)ncc2C(F)(F)F)sc1C1=CCS(=O)(=O)CC1 [Example 78, 4-(5-(2-((7-chloro-1,2,3,4-tetrahydroisoquinolin-6-yl)amino)-5-(trifluoromethyl)pyrimidin-4-yl)-3-(methylsulfonyl)thiophen-2-yl)-3,6-dihydro-2H-thiopyran 1,1-dioxide] | ≥ 8.00
NS(=O)(=O)c1csc(-c2nc(Nc3cc4c(cc3Cl)CNCC4)ncc2C(F)(F)F)c1 [Example 27, 5-(2-((7-Chloro-1,2,3,4-tetrahydroisoquinolin-6-yl)amino)-5-(trifluoromethyl)pyrimidin-4-yl)thiophene-3-sulfonamide] | ≥ 8.00
Cn1ccc2sc(-c3nc(Nc4cc5c(cc4Cl)CNCC5)ncc3C(F)(F)F)cc2c1=O [Example 30, 2-(2-((7-Chloro-1,2,3,4-tetrahydroisoquinolin-6-yl)amino)-5-(trifluoromethyl)pyrimidin-4-yl)-5-methylthieno[3,2-c]pyridin-4(5H)-one] | ≥ 8.00
CN1CCCc2sc(-c3nc(Nc4cc5c(cc4Cl)CNCC5)ncc3C(F)(F)F)cc2C1=O [Example 47, 2-(2-((7-chloro-1,2,3,4-tetrahydroisoquinolin-6-yl)amino)-5-(trifluoromethyl)pyrimidin-4-yl)-5-methyl-5,6,7,8-tetrahydro-4H-thieno[3,2-c]azepin-4-one] | ≥ 8.00
CS(=O)(=O)c1csc(-c2nc(Nc3cc4c(cc3Cl)CN(C3CC3)C4)ncc2C(F)(F)F)c1 [Example 113, 6-chloro-2-cyclopropyl-N-[4-(4-methylsulfonyl-2-thienyl)-5-(trifluoromethyl)pyrimidin-2-yl]isoindolin-5-amine] | 7.30 to 8.00
O=C1NCCOc2sc(-c3nc(Nc4cc5c(cc4Cl)CN(C(=O)C(F)(F)F)CC5)ncc3C(F)(F)F)cc21 [compound 70] | 7.30 to 8.00

The remaining lines, values ahead:

pIC50 | Compound
≥ 8.00 | CN1CCc2cc(Nc3ncc(C(F)(F)F)c(-c4cc(S(C)(=O)=O)c(C5CCOCC5)s4)n3)c(Cl)cc2C1 [Example 87, 7-chloro-2-methyl-N-(4-(4-(methylsulfonyl)-5-(tetrahydro-2H-pyran-4-yl)thiophen-2-yl)-5-(trifluoromethyl)pyrimidin-2-yl)-1,2,3,4-tetrahydroisoquinolin-6-amine]
≥ 8.00 | CS(=O)(=O)Nc1csc(-c2nc(Nc3cc4c(cc3Cl)CNCC4)ncc2C(F)(F)F)c1 [Example 16, N-(5-(2-((7-chloro-1,2,3,4-tetrahydroisoquinolin-6-yl)amino)-5-(trifluoromethyl)pyrimidin-4-yl)thiophen-3-yl)methanesulfonamide]
7.30 to 8.00 | Nc1csc(-c2nc(Nc3cc4c(cc3Cl)CNCC4)ncc2C(F)(F)F)c1 [Example 15, N-(4-(4-aminothiophen-2-yl)-5-(trifluoromethyl)pyrimidin-2-yl)-7-chloro-1,2,3,4-tetrahydroisoquinolin-6-amine]
≥ 8.00 | CS(=O)(=O)c1cc(-c2nc(Nc3cc4c(cc3Cl)CNCC4)ncc2C(F)(F)F)sc1N1CCS(=O)(=O)CC1 [Example 90, 4-(5-(2-((7-chloro-1,2,3,4-tetrahydroisoquinolin-6-yl)amino)-5-(trifluoromethyl)pyrimidin-4-yl)-3-(methylsulfonyl)thiophen-2-yl)thiomorpholine 1,1-dioxide]
≥ 8.00 | CCc1cc(N2CCN(C)CC2)ccc1Nc1ncc(C(F)(F)F)c(-c2cc(C(N)=O)cs2)n1 [Example 37, 5-(2-((2-Ethyl-4-(4-methylpiperazin-1-yl)phenyl)amino)-5-(trifluoromethyl)pyrimidin-4-yl)thiophene-3-carboxamide]
≥ 8.00 | O=C1NCCS(=O)(=O)c2cc(-c3nc(Nc4cc5c(cc4Cl)CNCC5)ncc3C(F)(F)F)sc21 [Example 82, 7-[2-[(7-chloro-1,2,3,4-tetrahydroisoquinolin-6-yl)amino]-5-(trifluoromethyl)pyrimidin-4-yl]-1,1-dioxo-3,4-dihydro-2H-thieno[2,3-f][1,4]thiazepin-5-one]
7.30 to 8.00 | COCc1sc(-c2nc(Nc3cc4c(cc3Cl)CNCC4)ncc2C(F)(F)F)cc1S(C)(=O)=O [Example 96, 7-chloro-N-(4-(5-(methoxymethyl)-4-(methylsulfonyl)thiophen-2-yl)-5-(trifluoromethyl)pyrimidin-2-yl)-1,2,3,4-tetrahydroisoquinolin-6-amine]
7.30 to 8.00 | O=C1NCCS(=O)(=O)c2cc(-c3nc(Nc4cc5c(cc4Cl)CN(C4CC4)CC5)ncc3C(F)(F)F)sc21 [Example 126, 7-(2-((7-chloro-2-cyclopropyl-1,2,3,4-tetrahydroisoquinolin-6-yl)amino)-5-(trifluoromethyl)pyrimidin-4-yl)-3,4-dihydrothieno[2,3-f][1,4]thiazepin-5(2H)-one 1,1-dioxide]
≥ 8.00 | COCCOc1sc(-c2nc(Nc3cc4c(cc3Cl)CN(C)CC4)ncc2C(F)(F)F)cc1C(N)=O [Example 66, 5-(2-((7-chloro-2-methyl-1,2,3,4-tetrahydroisoquinolin-6-yl)amino)-5-(trifluoromethyl)pyrimidin-4-yl)-2-(2-methoxyethoxy)thiophene-3-carboxamide]
7.30 to 8.00 | CN(C)C(=O)c1csc(-c2nc(Nc3cc4c(cc3Cl)CNCC4)ncc2C(F)(F)F)c1 [Example 2, 5-(2-((7-chloro-1,2,3,4-tetrahydroisoquinolin-6-yl)amino)-5-(trifluoromethyl)pyrimidin-4-yl)-N,N-dimethylthiophene-3-carboxamide]
7.30 to 8.00 | CS(=O)(=O)c1csc(-c2nc(Nc3cc4c(cc3Cl)CN(C3CC3)CC4)ncc2C(F)(F)F)c1 [Example 107, 7-chloro-2-cyclopropyl-N-[4-(4-methylsulfonyl-2-thienyl)-5-(trifluoromethyl)pyrimidin-2-yl]-3,4-dihydro-1H-isoquinolin-6-amine]
< 6.30 | CS(=O)(=O)c1cc(-c2nc(Nc3cc4c(cc3Cl)CN(C(=O)C(F)(F)F)CC4)ncc2C(F)(F)F)sc1C1=CCOCC1 [compound 74]
≥ 8.00 | CS(=O)(=O)c1csc(-c2nc(Nc3cc4c(cc3F)CNCC4)ncc2C(F)(F)F)c1 [Example 91, 7-fluoro-N-(4-(4-(methylsulfonyl)thiophen-2-yl)-5-(trifluoromethyl)pyrimidin-2-yl)-1,2,3,4-tetrahydroisoquinolin-6-amine]
7.30 to 8.00 | CS(=O)(=O)c1csc(-c2nc(Nc3cc4c(cc3F)CN(C3CC3)CC4)ncc2C(F)(F)F)c1 [Example 118, 2-cyclopropyl-7-fluoro-N-[4-(4-methylsulfonyl-2-thienyl)-5-(trifluoromethyl)pyrimidin-2-yl]-3,4-dihydro-1H-isoquinolin-6-amine]
6.30 to 7.00 | O=S(=O)(CCN1CCOCC1)c1csc(-c2nc(Nc3cc4c(cc3Cl)CNCC4)ncc2C(F)(F)F)c1 [Example 54, 7-chloro-N-(4-(4-((2-morpholinoethyl)sulfonyl)thiophen-2-yl)-5-(trifluoromethyl)pyrimidin-2-yl)-1,2,3,4-tetrahydroisoquinolin-6-amine]
7.30 to 8.00 | CCc1cc2c(cc1Nc1ncc(C(F)(F)F)c(-c3cc(C(N)=O)cs3)n1)CN(C)C2 [Example 20, 5-(2-((6-Ethyl-2-methylisoindolin-5-yl)amino)-5-(trifluoromethyl)pyrimidin-4-yl)thiophene-3-carboxamide]
≥ 8.00 | CS(=O)(=O)c1csc(-c2nc(Nc3cc4c(cc3Cl)CNC4)ncc2C(F)(F)F)c1 [Example 73, 6-chloro-N-(4-(4-(methylsulfonyl)thiophen-2-yl)-5-(trifluoromethyl)pyrimidin-2-yl)isoindolin-5-amine]
≥ 8.00 | CS(=O)(=O)c1csc(-c2nc(Nc3cc4c(cc3Cl)CNCC4)ncc2Cl)c1 [Example 93, 7-chloro-N-(5-chloro-4-(4-(methylsulfonyl)thiophen-2-yl)pyrimidin-2-yl)-1,2,3,4-tetrahydroisoquinolin-6-amine]
